Several values for one entry are separate records, joined by “and”; a condition that tells them apart may be missing. Identical values can stand only once.
What follows are compounds tested on male CD-1 mice (assay: 5 day chronic oral dosing toxicity study in mice (clinical signs)). Details: 40 mg/kg/day PO, male CD-1 mice, one line per animal.
Type: in vivo
Parameters: key to Clinical signs (observation code), Day 1, 24 hours / Clinical signs (observation code), Day 2, 24 hours / Clinical signs (observation code), Day 3, 24 hours / Clinical signs (observation code), Day 4, 24 hours / Clinical signs (observation code), Day 5, 24 hours / Clinical signs (observation code), Day 1, 4 hours / Clinical signs (observation code), Day 2, 4 hours / Clinical signs (observation code), Day 3, 4 hours / Clinical signs (observation code), Day 4, 4 hours / Clinical signs (observation code), Day 5, 4 hours: 0: Appeared Normal; 1: Activity (inc./dec.); 2: Sedation/Lethargy; 3: Piloerection; 4: Stereotypy; 5: Soft Stool; 6: Chromodacryorrhea; 7: Epistaxis; 8: Cyanosis; 9: Flaccidity; 10: Respiration; 11: Hunched Posture; 12: Enophthalmia; 13: Exophthalmia; 14: Palpabral Ptosis; 15: Loss of Righting; 16: Chromaturia; 17: Salivation; 18: Lacrimation; 19: Miosis; 20: Mydriasis; 21: Rigidity; 22: Ataxia; 23: Tremors; 24: Convulsions; 25: Catalepsy; 26: Lateral Recumbency; 27: Death
Procedure: This example illustrated a 5 day chronic oral dosing toxicity study with GlyT1 inhibitors. […] Behavioral observations (clinical signs) and body weights were recorded daily for all compounds tested. Male CD-1 mice were purchased from Charles River Labs (Kingston, N.Y.). The animals weighed between 20-25 grams upon arrival. Animals were acclimatized in a temperature/humidity (72° ±5° F./50%±5%) controlled vivarium, with a common 12 hour light/dark cycle (Lights on 0700 hrs) for 5 days prior to test. All animals were allowed food (Purina Labdiete® Rodent chow # 5001) and water (supplied by Elizabethtown Water Company) ad libitum during the acclimation period and throughout the study. On the day prior to test initiation animals were randomly assigned to groups: All animals chosen for test weighed at least 20 grams and appeared in good condition. Each animal was dosed once daily for 5 days. Animals remained on site for a 3 day recovery period following the chronic dosing period.
A stock concentration of each test compound was prepared fresh on the day of study initiation. Aliquots were diluted to the needed concentrations for daily dosing. Stock solutions were kept in a refrigerator when not in use. Each compound was dissolved in a small amount of distilled water. One equivalent of sodium hydroxide (2 N) may have been added to aid in dissolution of each test agent. Vehicle was then added quantum sufficiat to give the final volume. Final volumes were adjusted to reflect percent free base when appropriate. The vehicle used in this experiment was Hydroxypropyl-β-cyclodextrine (HPCD) Acros, lot 011849601, dissolved in distilled water to form a 10% weight/volume concentration. The pH was adjusted, using sodium hydroxide (2 N), to equal that of the test agents (usually between 8 to 10). All prepared test compounds were either in solution, and clear, or in suspension, and slightly cloudy. Suspensions were mixed immediately prior to use.
All animals were administered either test compound or vehicle Per Os (PO) via 21 gauge gavage needles, in volumes of 10.0 ml/kg. Daily body weights were used to determine individual dosing volumes. All test compounds were weighed on a Denver Instruments analytical balance (model # A-250). Animals were weighed on a top loading Ohaus portable balance model # LS2000.
Animals were assessed for overt behaviors (clinical signs) immediately following administration of test agents, then again at 4 and 24 hours. Animals were assessed for 27 separate clinical signs:
Toxicity data obtained through the assay as described above is provided in Tables 1 to 14 for Compounds Gi to Gxiv inclusive. The animals were observed immediately following administration and again at 4 hours and 24 hours. Observations are reported using the code number from the following chart: […]

| SMILES | Clinical signs (observation code), Day 1, 4 hours | Clinical signs (observation code), Day 1, 24 hours | Clinical signs (observation code), Day 2, 4 hours | Clinical signs (observation code), Day 2, 24 hours | Clinical signs (observation code), Day 3, 4 hours | Clinical signs (observation code), Day 3, 24 hours | Clinical signs (observation code), Day 4, 4 hours | Clinical signs (observation code), Day 4, 24 hours | Clinical signs (observation code), Day 5, 4 hours | Clinical signs (observation code), Day 5, 24 hours |
| --- | --- | --- | --- | --- | --- | --- | --- | --- | --- | --- |
| CN(C/C=C(/c1ccc(-c2cccc(C#N)c2)cc1)c1ccsc1)CC(=O)O [Compound G(viii), (Z)-N-(1-(4-(3-Cyanophenyl)phenyl)-1-(3-thienyl)prop-1-en-3-yl)sarcosine] | 0 | 0 | 0 | 0 | 0 | 0 | 0 | 0 | 0 | 0 |
| CN(C/C=C(/c1ccc(-c2ccco2)cc1)c1ccsc1)CC(=O)O [Compound G(iv), (Z)-N-(1-(4-(2-Furyl)phenyl)-1-(3-thienyl)prop-1-en-3-yl)sarcosine] | 0 and 14 | 0 | 0 | 0 | 14 (2×) and 0 | 0 | 0 | 0 | 0 (2×) and 14 | 0 |
| Cc1cscc1/C(=C\CN(C)CC(=O)O)c1ccc(-c2cccc(C(F)(F)F)c2)cc1 [Compound G(xi), (Z)-N-(1-(4-(3-(Trifluoromethyl)phenyl)phenyl)-1-(3-(4-methylthienyl))prop-1-en-3-yl)sarcosine] | 0 | 0 | 0 | 0 | 0 | 0 | 0 | 0 | 0 | – |
| CN(C/C=C(/c1ccc(-c2ccsc2)cc1)c1ccsc1)CC(=O)O [Compound G(ii), (Z)-N-(1-(4-(3-Thienyl)phenyl)-1-(3-thienyl)prop-1-en-3-yl)sarcosine] | 0 | 0 | 0 (2×) and 1 | 0 | 0 | 0 | 0 | 0 | 0 and 14 | 0 |
| CC(C)c1ccc(-c2ccc(/C(=C/CN(C)CC(=O)O)c3ccsc3)cc2)cc1 [Compound G(i), (Z)-N-(1-(4-(4-Isopropylphenyl)phenyl)-1-(3-thienyl)prop-1-en-3-yl)sarcosine] | 0 | 0 | 0 | 0 | 0 | 0 | 0 | 0 | 0 | 0 |

— patent publication US6667336B2, “GlyT-1 inhibitors” (NPS Allelix Corp., priority 2002, dated 2003)
